This note sets out measurements from patent US12478689B2, “Anti-CD19 antibody drug conjugates” (AbbVie Biotherapeutics Inc., priority 2022, dated 2025).

As a reminder, the EC50 is the midpoint of the concentration-response curve.

Molecules are shown by their SMILES.

Data set [1] relates to Farage, SU-DHL-6, OCI-LY19 cells. The note with it: GRM 100 nM, ADC-1 1 μM; all 3 cell lines.
Another data set relates to RS4;11 (ALL). The settings on record: read-out: EC50 in vitro cytotoxicity (% cell viability), 5-day compound treatment, FIG. 1.
The subject of a further data set is RS4;11 tumors. As to the kind of experiment: ALL subcutaneous xenograft in CB17/SCID mice. In kind it is in vivo. The note with it: FIG. 11; fucosylated mAb and ADC-1 used; prednisolone [QD×5]×3; ADC-1 single low dose. The text has this: Food and water were available ad libitum.
Intraperitoneal route of administration was used.
Tumor volume was estimated one to two times weekly.

As to `C[C@]12C=CC(=O)C=C1[C@@H](F)C[C@H]1[C@@H]3C[C@H]4O[C@@H](c5ccc(Cc6cccc(N)c6)cc5)O[C@@]4(C(=O)CO)[C@@]3(C)C[C@H](O)[C@@]12F` [Compound of Formula IV, (2S,6aS,6bR,7S,8aS,8bS,10R,11aR,12aS,12bS)-10-(4-(3-Aminobenzyl)phenyl)-2,6b-difluoro-7-hydroxy-8b-(2-hydroxyacetyl)-6a,8a-dimethyl-1,2,6a,6b,7,8,8a,8b,11a,12,12a,12b-dodecahydro-4H-naphtho[2′,1′:4,5]indeno[1,2-d][1,3]dioxol-4-one], the “Apoptosis (BIM, cleaved caspase-3, cleaved PARP)” value in data set [1] was “induced apoptosis”. Consider `C[C@@H]1C[C@H]2[C@@H]3CCC4=CC(=O)C=C[C@]4(C)[C@@]3(F)[C@@H](O)C[C@]2(C)[C@@]1(O)C(=O)CO` [dexamethasone], for which the EC50 with RS4;11 (ALL) was 3.28 nM.

As to `C[C@]12C=CC(=O)C=C1CC[C@@H]1[C@@H]2[C@@H](O)C[C@@]2(C)[C@H]1CC[C@]2(O)C(=O)CO` [prednisolone, reference compound], the Anti-tumor activity result in the data set with RS4;11 tumors is reported as “modest anti-tumor activity”. Also, the EC50 in the data set on RS4;11 (ALL) was 82.9 nM.
